Test [1] concerns the target T1, recombinant integrin α4β1 (Homo sapiens, UniProt P05556+P13612).
T1 construct: purchased R&D Systems 5397-A3-050
In words: Integrin α4β1—VCAM-1 competition ELISA. The test is classed as binding. Conditions: read-out: ELISA a4b1 Assay IC50. On the procedure:
Integrin α4β1—VCAM-1 Competition ELISA
The plate was incubated at 4° C. overnight. […] The plate was then incubated for 1 hour at room temperature. The plate was washed three times with wash buffer (50 mM Tris, 100 mM NaCl, 1 mM MnCl2, 0.05% Tween). To each well, 50 μl of compound diluted in assay buffer was added by transfer from a compound serial dilution plate. […] The plate was incubated at room temperature with shaking (300 rpm) for 2 hours to reach binding equilibrium. Then the plate was washed three times in wash buffer and 100 μl anti-human IgG Fc specific-HRP (Abcam, Ab97225) diluted at 1:2000 in assay buffer was added to each well. The plate was incubated at room temperature for 1 hour under agitation.

In test [2] the target is T2, recombinant integrin α4β7 (Homo sapiens, UniProt P13612+P26010, DEL724-798).
T2 construct: purchased R&D Systems 5397-A3-050
T2 sequence (P13612 34-970 limits assumed): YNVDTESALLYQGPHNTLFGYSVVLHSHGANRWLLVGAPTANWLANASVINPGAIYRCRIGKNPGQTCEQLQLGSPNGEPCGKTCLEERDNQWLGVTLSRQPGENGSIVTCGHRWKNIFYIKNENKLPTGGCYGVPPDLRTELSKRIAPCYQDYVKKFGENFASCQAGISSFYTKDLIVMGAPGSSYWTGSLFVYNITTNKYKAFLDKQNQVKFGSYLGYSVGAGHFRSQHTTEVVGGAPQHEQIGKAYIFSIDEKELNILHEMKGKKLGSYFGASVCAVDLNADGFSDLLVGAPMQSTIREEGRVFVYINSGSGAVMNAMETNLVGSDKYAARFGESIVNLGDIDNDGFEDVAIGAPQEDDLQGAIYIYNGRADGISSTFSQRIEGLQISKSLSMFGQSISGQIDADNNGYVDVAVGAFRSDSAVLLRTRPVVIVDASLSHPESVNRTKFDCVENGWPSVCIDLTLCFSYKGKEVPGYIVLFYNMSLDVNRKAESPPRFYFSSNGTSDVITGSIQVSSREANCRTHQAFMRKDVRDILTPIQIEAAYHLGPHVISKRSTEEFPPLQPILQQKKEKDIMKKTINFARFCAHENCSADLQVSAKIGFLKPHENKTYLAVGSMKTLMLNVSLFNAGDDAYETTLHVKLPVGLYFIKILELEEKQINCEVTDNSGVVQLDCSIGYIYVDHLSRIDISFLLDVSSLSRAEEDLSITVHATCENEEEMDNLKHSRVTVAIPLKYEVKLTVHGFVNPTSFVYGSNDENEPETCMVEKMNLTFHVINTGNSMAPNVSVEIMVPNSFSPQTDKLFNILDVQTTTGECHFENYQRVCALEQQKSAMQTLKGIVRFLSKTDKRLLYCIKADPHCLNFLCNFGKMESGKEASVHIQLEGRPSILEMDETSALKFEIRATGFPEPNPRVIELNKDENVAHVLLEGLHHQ
T2 sequence (P26010 20-723 limits assumed): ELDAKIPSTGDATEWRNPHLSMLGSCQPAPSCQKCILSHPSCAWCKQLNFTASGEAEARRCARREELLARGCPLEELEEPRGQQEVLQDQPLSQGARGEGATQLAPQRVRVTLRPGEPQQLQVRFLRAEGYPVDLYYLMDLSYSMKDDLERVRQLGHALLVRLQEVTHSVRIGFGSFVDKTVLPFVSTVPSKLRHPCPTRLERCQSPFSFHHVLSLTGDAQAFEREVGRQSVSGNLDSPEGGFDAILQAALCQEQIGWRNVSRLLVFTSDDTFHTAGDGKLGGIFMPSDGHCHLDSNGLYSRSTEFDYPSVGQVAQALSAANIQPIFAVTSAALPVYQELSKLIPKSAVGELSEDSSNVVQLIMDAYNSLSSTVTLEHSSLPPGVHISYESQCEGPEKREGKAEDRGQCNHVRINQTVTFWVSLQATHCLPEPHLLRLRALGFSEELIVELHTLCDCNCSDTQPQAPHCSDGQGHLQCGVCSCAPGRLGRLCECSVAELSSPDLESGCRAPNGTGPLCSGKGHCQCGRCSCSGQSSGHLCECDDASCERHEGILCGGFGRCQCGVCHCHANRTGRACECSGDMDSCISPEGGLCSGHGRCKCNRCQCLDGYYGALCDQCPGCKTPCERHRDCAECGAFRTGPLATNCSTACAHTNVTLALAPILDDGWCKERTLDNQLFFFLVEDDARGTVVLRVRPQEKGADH
In words: Integrin α4β7—MAdCAM-1 ELISA competition assay. Conditions: for ELISA Assay Ratio b1/b7: ratio of a4b1 to a4b7 ELISA IC50; for IC50: read-out: ELISA a4b7 Assay IC50. In kind it is binding. Background: An ELISA detects its analyte on a solid surface through an enzyme-linked reagent.
Description: Integrin α4β7—MAdCAM-1 ELISA Competition Assay
The plate was incubated at 40C overnight. […] The plate was then incubated for 1 hour at room temperature. The plate was washed three times with wash buffer (50 mM Tris, 100 mM NaCl, 1 mM MnCl2, 0.05% Tween). To each well, 50 μl of compound diluted in assay buffer was added by transfer from a compound serial dilution plate. […] The plate was incubated at room temperature with shaking (300 rpm) for 2 hours to reach binding equilibrium. […] The plate was incubated at room temperature for 1 hour under agitation.

The record followed here is patent US11713338B2, “Cyclic peptides multimers targeting α-4-β-7 integrin” (priority 2016, dated 2023).

Broadly, the IC50 is the concentration needed to halve the response being measured.

T1 sequence (P05556 21-728 limits assumed, one chain of several): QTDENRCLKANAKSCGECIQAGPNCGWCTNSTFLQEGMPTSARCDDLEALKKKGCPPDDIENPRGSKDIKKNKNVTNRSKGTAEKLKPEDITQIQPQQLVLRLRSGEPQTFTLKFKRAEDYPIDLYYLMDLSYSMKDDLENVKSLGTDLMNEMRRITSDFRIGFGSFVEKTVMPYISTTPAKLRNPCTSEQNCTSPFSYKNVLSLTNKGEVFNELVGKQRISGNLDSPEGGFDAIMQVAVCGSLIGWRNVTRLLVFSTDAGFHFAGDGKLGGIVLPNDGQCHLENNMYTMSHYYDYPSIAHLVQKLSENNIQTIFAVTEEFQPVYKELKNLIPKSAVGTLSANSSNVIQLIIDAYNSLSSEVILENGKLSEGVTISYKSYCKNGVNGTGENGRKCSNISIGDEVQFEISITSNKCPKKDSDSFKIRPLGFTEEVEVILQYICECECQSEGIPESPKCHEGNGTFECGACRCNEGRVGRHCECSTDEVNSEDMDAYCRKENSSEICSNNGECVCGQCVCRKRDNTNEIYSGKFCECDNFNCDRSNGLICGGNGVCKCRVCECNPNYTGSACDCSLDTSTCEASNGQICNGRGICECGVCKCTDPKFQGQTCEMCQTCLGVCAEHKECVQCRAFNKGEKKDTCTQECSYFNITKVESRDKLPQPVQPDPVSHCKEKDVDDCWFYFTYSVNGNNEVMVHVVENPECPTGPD

For `CC(C)C[C@@H]1NC(=O)[C@H]2CCCCN2C(=O)[C@H](Cc2ccccc2I)NC(=O)[C@@H]2CCCN2[C@H](C(=O)NC(C)(C)C)[C@H](C)NC(=O)[C@H]([C@@H](C)O)NC(=O)[C@H](CC(=O)O)NC1=O` [Compound 133], the IC50 in test [1] worked out at 80 nM. In test [2], the “ELISA Assay Ratio b1/b7” value came out at 5.3 and the IC50 turned out to be 15 nM.
In the same order, the values of `COc1ccccc1-c1ccccc1C[C@@H]1NC(=O)[C@@H]2CCCN2[C@H](C(=O)NC(C)(C)C)[C@H](C)NC(=O)[C@H]([C@@H](C)O)NC(=O)[C@H](CC(=O)O)NC(=O)[C@H](CC(C)C)NC(=O)[C@H]2CCCCN2C1=O` [Compound 135] are 119 nM, 4.9 and 24 nM.
For `COc1cccc(-c2ccccc2C[C@@H]2NC(=O)[C@@H]3CCCN3[C@H](C(=O)NC(C)(C)C)[C@H](C)NC(=O)[C@H]([C@@H](C)O)NC(=O)[C@H](CC(=O)O)NC(=O)[C@H](CC(C)C)NC(=O)[C@H]3CCCCN3C2=O)c1` [Compound 136], in that order: 209 nM, 6.6 and 32 nM.
For `CC(C)C[C@@H]1NC(=O)[C@H]2CCCCN2C(=O)[C@H](Cc2ccc(-c3ccccc3)cc2)NC(=O)[C@@H]2CCCN2[C@H](C(=O)NC(C)(C)C)[C@H](C)NC(=O)[C@H]([C@@H](C)O)NC(=O)[C@H](CC(=O)O)NC1=O` [Compound 138], in that order: 118 nM, 5.0 and 24 nM.
With `CC(C)C[C@@H]1NC(=O)[C@@H]2C[C@@H](O)CN2C(=O)[C@H](Cc2ccc(O)cc2)NC(=O)[C@@H]2CCCN2[C@H](C(=O)NC(C)(C)C)[C@H](C)NC(=O)[C@H]([C@@H](C)O)NC(=O)[C@H](CC(=O)O)NC1=O` [Compound 139], the IC50 in test [1] stood at 73 nM. For the same compound, in test [2], the “ELISA Assay Ratio b1/b7” value is listed as 0.7 and the IC50 was 100 nM.
For `CC(C)C[C@@H]1NC(=O)[C@H]2C[C@@H](O)CN2C(=O)[C@H](Cc2ccc(O)cc2)NC(=O)[C@@H]2CCCN2[C@H](C(=O)NC(C)(C)C)[C@H](C)NC(=O)[C@H]([C@@H](C)O)NC(=O)[C@H](CC(=O)O)NC1=O` [Compound 141], in that order: 36 nM, 2.0 and 19 nM.
For `CC(C)C[C@@H]1NC(=O)[C@H]2CCCCN2C(=O)[C@H](Cc2cccc3ccccc23)NC(=O)[C@@H]2CCCN2[C@H](C(=O)NC(C)(C)C)[C@H](C)NC(=O)[C@H]([C@@H](C)O)NC(=O)[C@H](CC(=O)O)NC1=O` [Compound 143], in that order: 68 nM, 2.1 and 33 nM.
Consider `C[C@@H]1NC(=O)[C@H]([C@@H](C)O)NC(=O)[C@H](CC(=O)O)NC(=O)[C@H](CC(C)(C)C)NC(=O)[C@H]2CCCCN2C(=O)[C@H](Cc2ccc(O)cc2)NC(=O)[C@@H]2CCCN2[C@@H]1C(=O)NC(C)(C)C` [Compound 150], for which the IC50 in test [1] was 447 nM. Also, in test [2], the “ELISA Assay Ratio b1/b7” value came out at 8.2 and the IC50 came to 54 nM.
As to `CC(C)C[C@@H]1NC(=O)[C@H]2C[C@H](O)CN2C(=O)[C@H](Cc2cscn2)NC(=O)[C@@H]2CCCN2[C@H](C(=O)NC(C)(C)C)[C@H](C)NC(=O)[C@H]([C@@H](C)O)NC(=O)[C@H](CC(=O)O)NC1=O` [Compound 151], the IC50 was found to be 218 nM in test [1] and 53 nM in test [2]. Besides, in test [2], the “ELISA Assay Ratio b1/b7” value is 4.1.
In the same order, the values of `CC(C)C[C@@H]1NC(=O)[C@H]2C[C@H](O)CN2C(=O)[C@H](Cc2ccc(CN)cc2)NC(=O)[C@@H]2CCCN2[C@H](C(=O)NC(C)(C)C)[C@H](C)NC(=O)[C@H]([C@@H](C)O)NC(=O)[C@H](CC(=O)O)NC1=O` [Compound 152] are 1350 nM, 102 nM and 13.2.
With `CC[C@H](C)[C@@H]1NC(=O)[C@H](CC(=O)O)NC(=O)[C@H](CC(C)C)NC(=O)[C@@H](CCCCN)N(C)C(=O)[C@H](Cc2ccc(O)cc2)NC(=O)[C@@H]2CCCN2[C@H](C(=O)NC(C)(C)C)[C@H](C)NC1=O` [Compound 154], the IC50 in test [1] was 2660 nM. Besides, in test [2], the “ELISA Assay Ratio b1/b7” value was found to be 22.8 and the IC50 was determined as 117 nM.
In the same order, the values of `CC(C)C[C@@H]1NC(=O)[C@@H](CCCNC(=N)N)N(C)C(=O)[C@H](Cc2ccc(O)cc2)NC(=O)[C@@H]2CCCN2[C@H](C(=O)NC(C)(C)C)[C@H](C)NC(=O)[C@H]([C@@H](C)O)NC(=O)[C@H](CC(=O)O)NC1=O` [Compound 157] are 3710 nM, 55.3 and 67 nM.
Take `C=CCOc1ccc(C[C@@H]2NC(=O)[C@@H]3CCCN3[C@H](C(=O)NC(C)(C)C)[C@H](C)NC(=O)[C@H]([C@@H](C)O)NC(=O)[C@H](CC(=O)O)NC(=O)[C@H](CC(C)C)NC(=O)CNC2=O)cc1` [Compound 163]: the concentration for half-maximal inhibition (IC50) in test [1] stood at 1390 nM. Besides, in test [2], the “ELISA Assay Ratio b1/b7” value is given as 11.0 and the IC50 was found to be 126 nM.
In the same order, the values of `C=CCOc1ccc(C[C@@H]2NC(=O)[C@@H]3CCCN3[C@H](C(=O)NC(C)(C)C)[C@H](C)NC(=O)[C@H]([C@@H](C)O)NC(=O)[C@H](CC(=O)O)NC(=O)[C@H](CC(C)C)NC(=O)[C@@H](C(C)C)NC2=O)cc1` [Compound 166] are 1380 nM, 7.7 and 179 nM.
Regarding `CC(C)C[C@@H]1NC(=O)CN(C)C(=O)[C@H](Cc2csc(-c3ccccn3)n2)NC(=O)[C@@H]2CCCN2[C@H](C(=O)NC(C)(C)C)[C@H](C)NC(=O)[C@H]([C@@H](C)O)NC(=O)[C@H](CC(=O)O)NC1=O` [Compound 179], in test [1], the IC50 is 2660 nM. Besides, the “ELISA Assay Ratio b1/b7” value in test [2] came to 15.2.
`CC(C)C[C@@H]1NC(=O)C[C@H](CCCCN)NC(=O)[C@H](CC2CCCCC2)NC(=O)[C@@H]2CCCN2[C@H](C(=O)NC(C)(C)C)[C@H](C)NC(=O)[C@H]([C@@H](C)O)NC(=O)[C@H](CC(=O)O)NC1=O` [Compound 210]: the IC50 in test [1] turned out to be 1150 nM. In addition, in test [2], the “ELISA Assay Ratio b1/b7” value is given as 16.0 and the IC50 was determined as 72 nM.
For the compound `CC(C)C[C@@H]1NC(=O)C[C@H](CCCCN)NC[C@H](Cc2ccc(CN)cc2)NC(=O)[C@@H]2CCCN2[C@H](C(=O)NC(C)(C)C)[C@H](C)NC(=O)[C@H]([C@@H](C)O)NC(=O)[C@H](CC(=O)O)NC1=O` [Compound 218], the figures for the IC50 in test [1] and in test [2] were 3130 nM and 190 nM, respectively. In test [2], the “ELISA Assay Ratio b1/b7” value is 16.5.
For `CC[C@H](C)[C@@H]1NC(=O)[C@H](CC(=O)O)NC(=O)[C@H](CC(C)C)NC(=O)C[C@H](CCCCN)NC(=O)[C@@H](Cc2ccc(CN)cc2)NC(=O)[C@@H]2CCCN2[C@H](C(=O)NC(C)(C)C)[C@H](C)NC1=O` [Compound 253], in that order: 1090 nM, 69 nM and 15.6.
